From US20220175638A1, “CELL ACTIVATOR” (Shiseido Company, Ltd., priority 2019, published 2022)

Legend:
Human skin fibroblasts [1] = test: Experiment 2: cellular activity at different C-phycocyanin concentrations and UV doses; assay type: cell-based; conditions: UV 0, 10, 25, 50, 75 and 100 mJ/cm^2, FIG. 3
Protocol: (§1) 1. Human skin fibroblasts (purchased from Kurabo) and human skin keratinocytes (purchased from Kurabo or PromoCell) were used. A cell suspension (1 mL) stored with liquid nitrogen was placed in a hot water bath (37° C.) and thawed until small ice pellets remained, and then diluted with 9 mL of warm medium. 2. The diluted suspension was gently mixed and transferred to a T75 flask, and incubated overnight at 37° C. 3. On the following day, the medium was exchanged with 10 mL of fresh medium. 4. The medium was periodically exchanged (once every 2 days for fibroblasts, or once every 2 to 3 days for keratinocytes), while continuing growth of the cells. During this time, a microscope was used to observe the cells and to confirm that the cells had proliferated with the proper form. 5. Once the cells reached approximately 80% confluence, they were subcultured. Subculturing of the cells was carried out by rinsing once in 10 mL of warm PBS, after which 5 mL of warm trypsin was added to the T75 flask to cover the bottom of the flask with the trypsin solution, and the mixture was suctioned after standing for 1 minute at room temperature. 6. The flask was set in an oven at 37° C. for 2 minutes (maximum) for fibroblasts and 7 minutes (maximum) for keratinocytes. A microscope was used to observe the cells, confirming that they were small and elliptical. 7. […]

Human skin fibroblasts [2] = test: Experiment 3: restoration of UV irradiation-reduced cellular activity; assay type: cell-based; conditions: pre-irradiation 400 mJ/cm^2 without substance, then UV 0-200 mJ/cm^2 through 0.4% or 2% C-phycocyanin; FIG. 5
Protocol: as §1

## C-phycocyanin
Human skin fibroblasts [1]; 0.4% C-phycocyanin
  cellular activity (relative fluorescence intensity): reduction in cellular activity was inhibited even under UV irradiation
Human skin fibroblasts [1]; 2% C-phycocyanin
  cellular activity (relative fluorescence intensity): accelerated cellular activity even above the level with no UV irradiation
Human skin fibroblasts [2]
  cellular activity of cells with previously lowered activity: cellular activity was restored
